# Test results published in US12049475B2, “Bisphosphonate drug conjugates” (BRISE PHARMACEUTICALS CO., LTD., priority 2018, dated 2024).
# Entries after “also recorded” stand apart in the source; their conditions may differ.
# Legend:
# CED mice [1] = test: CED mouse model: histology and immunofluorescence of tibia (HE, TRAP, Ocn, Osx, Col1, CD31/Emcn, LepR); assay type: in vivo; details: for number of Col1+ cells compared with Littermate group / number of Ocn+ cells compared with Littermate group / number of Osx+ cells compared with Littermate group: co-staining with Emcn; for LepR+pSmad2/3+ dual positive BMSC (immunofluorescence): tibia sections
# Experimental: (§1) Mice: According to Tang et al., Nat Med. 15:757-765 (2009), a mutation in the coding area of the TGF-β1 latency protein was generated in mice, and the active form of TGF-β1 was secreted by osteoblasts. […] All mice received the intraperitoneal injections once a week for 2 months, beginning at 1 month of age until sacrifice at 3 months of age. The tibias of the mice were collected and analyzed.
# (§2) Immunostaining was performed using a standard protocol.
# Immunofluorescence staining was performed using as described. […] Secondary antibodies conjugated with fluorescence were added, and slides were incubated at room temperature for 1 h while avoiding light. Sections were microphotographed to perform histomorphometric measurements (Olympus DP71). The quantitative histomorphometric analysis was conducted in a blinded fashion with OsteoMeasureXP Software (OsteoMetrics, Inc.). […]
# CED mice [2] = test: CED mouse model, 8-week treatment: μCT of tibia and fracture incidence; details: for total BV/TV: among all groups; for bone fracture incidence: 100 μg/kg i.p. once a week, 2-month (8-week) treatment
# Experimental: All transgenic animals used in this study are as described in the Animals section. […] During cell counting, microCT analysis and histological staining analysis, all manual quantification is performed in a blind manner to eliminate observer bias. Animals were randomly assigned to groups for experiments in CED animal studies.
# as §1
# Microcomputed tomography analysis: Tibia collected from mice were dissected to remove soft tissue, fixed overnight in 70% ethanol, and analyzed with a high-resolution microcomputed tomography (μCT) imaging system (MicroCT40; Scanco Medical AG, Basserdorf, Switzerland). The scanner was set at a voltage of 55 kVp and a current of 109 μA. The resulting two-dimensional longitude-sectional images or three-dimensional whole-bone images are shown in gray scale. Three-dimensional structural parameters, total bone volume per tissue volume, cortical bone volume, cortical bone thickness, and cortical bone porosity were given.
# [3] = pharmaceutical data, cited from earlier work
# CED mice [4] = test: CED mouse model: flow cytometry of tibia bone marrow cells; assay type: in vivo; details: for CD31+Emcn+ double positive cells (FACS of tibia bone marrow): 8-week treatment; for number of LepR+ cells in bone marrow (FACS): distal one-third of tibia, 2 months of treatment
# Experimental: Flow cytometry: Bone marrow cells in the distal one-third of tibia were collected from each group (n=6) after 2 months of conjugate treatment. Red blood cells were lysed in commercial ACK lysis buffer (Quality Biological, Inc., 118-156-101). After centrifugation (1,200 r.p.m. for 5 min at room temperature), cell pellets were resuspended and fixed in 4% PFA. Cells were then washed with 0.1% BSA in PBS and counted. One million cells per milliliter were permeabilized in 0.1% Triton X-100 before blocking in 3% FACS buffer (PBS, 3% FBS, and 0.1% NaN3 sodium azide) for 30 min on ice. Cells were incubated with endomucin antibody (Santa Cruz, sc-65495), Leptin Receptor (R&D, 1:100, AF497), or isotype control antibody for 1 h at 37° C. in a dark room and then washed twice with 0.1% BSA in PBS. After washing, cells were stained with APC-conjugated CD31 antibody (R&D Systems, FAB3628A) for 45 min. Cells were acquired immediately after washing with 3% FACS buffer. Probes were analyzed using a FACS Calibur flow cytometer and CellQuest software (Becton Dickinson).
# wild-type mice = test: 7-day survival of wild-type mice after conjugate injection; assay type: in vivo
# Experimental: FIG. 1 presents graphs showing that a conjugate of the present disclosure, Compound 1, delivers a TβR1I specifically to bone and releases it in a time-dependent manner. […] Part (C) presents quantification of the Western-blot band intensity in (B). Data are presented as relative level of p-SMAD2/SMAD2 ratio normalized to DMSO condition. […] Part (E) presents quantification data of pSmad2/3^+ cells in (D). […] Of 6 mice in the 5 mg/kg group, 2 died in 7 days. […] Part (H) presents quantification data of pSmad2/3^+ cells in (G). In FIG. 1, the following conventions are used: NS, not significant. **P<0.01, ****P<0.0001 determined by multifactorial ANOVA. All data are reported as the mean±s.d.
# [5] = tested on: heart, liver, lung, and kidney; test: HE and pSmad2/3 staining of heart, liver, kidney and lung; assay type: in vivo, mice; details: after conjugate administration
# Experimental: as §2
# [6] = tested on: TGF-β1 signaling (pSmad2/3) in BMSCs; test: pSmad2/3 immunofluorescence staining of BMSCs exposed to TGF-β1; assay type: cell-based, mice; details: 10 μM for 1 h, 24 h, 48 h, then 5 ng/ml TGF-β1 for 30 min
# Experimental: (§3) Cell culture: HeLa cells and BMSCs from mice were cultured in Dulbecco's Modified Eagle's Medium (GIBCO) supplemented with 10% fetal bovine serum (FBS; Sigma), 100 units/ml penicillin, 100 μg/ml streptomycin (Sigma), and 2 mM glutamine and were incubated at 37° C. in a humidified chamber supplemented with 5% CO2. […] Cells were then exposed to 5 ng/ml of recombinant human TGF-β1 (R&D Systems) for 30 min and processed for cell staining and Western blotting.
# Cell staining: BMSCs were washed 3 times with PBS and fixed by 4% paraformaldehyde (PFA) for 30 min. Cells were then washed 3 times with PBS and incubated with 3% BSA, 0.1% Triton in PBS for 1 h. […] Secondary antibodies conjugated with fluorescence were added, and plates were incubated at room temperature for 1 h while avoiding light. Cells were counted under the microscope (Olympus DP71).
# [7] = tested on: TGF-β1 signaling in tibias; test: pSmad2/3 staining of tibias after intraperitoneal injection (bone delivery and release); details: 100 μg/kg intraperitoneal injection, compared with vehicle control
# Experimental: Histochemistry, immunohistochemistry, and immunofluorescence: At the time of euthanasia, tibias were collected and fixed in 10% buffered formalin for 48 h, decalcified in 10% EDTA (pH 7.4) for 14 d, and then embedded in paraffin. […] Immunostaining was performed using a standard protocol. Sections were incubated with primary antibodies to mouse pSmad2/3 (Santa Cruz Biotechnology Inc., 1:50, sc-11769) and osteocalcin (Takara Bio Inc., 1:200, M137) overnight at 4° C. For immunohistochemical staining, a liquid Diaminobenzidine (DAB)+Chromogen System (Dako, K3468) was used to detect immunoreactivity, followed by counterstaining with hematoxylin and eosin (Sigma-Aldrich, MHS16).
# Compound 1 was also tested for tissue distribution following intraperitoneal injection. […] It was then determined whether the conjugate delivered TβR1I (TGF-beta type 1 receptor inhibitor) specifically to bone and hydrolyzed over time (intraperitoneal injection, DMSO, 100 μg/kg of ALN, Inhibitor, or Conjugate).
# TGF-β1 signaling pathway = test: CED mouse model: pSmad2/3 immunohistochemistry of tibia; assay type: in vivo, mice; details: 8-week treatment, compared with CED group and ALN group
# Experimental: as §1, §2
# Immunofluorescence staining was performed using as described. […] Secondary antibodies conjugated with fluorescence were added, and slides were incubated at room temperature for 1 h while avoiding light. Sections were microphotographed to perform histomorphometric measurements (Olympus DP71). The quantitative histomorphometric analysis was conducted in a blinded fashion with OsteoMeasureXP Software (OsteoMetrics, Inc.). The number of positively stained cells in the whole tibia subchondral bone area per specimen was counted in five sequential sections per mouse in each group.
# [8] = tested on: TGF-β1 signaling (pSmad2) in HeLa cells; test: Western blot of pSmad2 in HeLa cells exposed to TGF-β1; assay type: cell-based, human
# Experimental: as §3
# Western blot: HeLa cells were lysed with […] and […] (Roche), and mixed with an equal volume of 2×SDS-PAGE sample buffer with DTT. Samples were boiled and cleared by centrifuge, separated by SDS-PAGE, and transferred onto nitrocellulose (NC) membranes. Membranes were blocked with 5% non-fat dry milk and incubated with primary antibodies at 4° C. overnight. Primary antibodies include rabbit anti-Smad2 antibody (Cell Signaling Technology, 3122, 1:1,000) and rabbit anti-Phospho-Smad2 (Ser465/467) antibody (Cell Signaling Technology, 3108, 1:1,000). HRP-conjugated goat anti-rabbit IgG (Santa Cruz Biotechnology, 2054, 1:5,000) was used as secondary antibody. Signals were detected with Super Signal West Dura Extended Duration Substrate (Thermo Scientific).
# bone metastasis = details: literature; cited from earlier work
# CED mice [9] = details: intraperitoneal injection; Nat Med. 15:757-765 (2009); cited from earlier work
compound,measurement,setting,value
"NCCCC(O)(P(=O)(O)O)P(=O)(O)O [ALN, 4-amino-1-hydroxybutylidene-1,1-bisphosphonic acid monosodium trihydrate, reference compound]",CD31+Emcn+ vessel surfaces (immunofluorescence),CED mice [1]; 8-week treatment,highly increased
same,bone formation in diaphysis bone marrow (HE staining),"CED mice [1]; 8-week treatment, compared with Conjugate and Littermate group",aberrant bone formation was found
same,number of Col1+ cells compared with Littermate group,CED mice [1],significantly increased
same,number of Ocn+ cells compared with Littermate group,CED mice [1],significantly increased
same,number of Osx+ cells compared with Littermate group,CED mice [1],significantly increased
same,LepR+pSmad2/3+ dual positive BMSC (immunofluorescence),CED mice [1],significantly increased
same,bone porosity rate,"CED mice [2]; 100 μg/kg per week, 8 weeks",significantly increased
same,cortical bone thickness,"CED mice [2]; 100 μg/kg per week, 8 weeks",significantly increased
same,total cortical bone volume,"CED mice [2]; 100 μg/kg per week, 8 weeks",decreased
same,total BV/TV,"CED mice [2]; 100 μg/kg per week, 8 weeks",no significant difference
same,bone fracture incidence,CED mice [2]; CED mice,50%
same,time to reach bone,[3],less than 2 hours
same,fraction that reaches bone,[3]; the rest is excreted in urine,50-70%
same,CD31+Emcn+ double positive cells (FACS of tibia bone marrow),CED mice [4],highly increased
same,number of LepR+ cells in bone marrow (FACS),CED mice [4],significantly increased
"O=C(NCCCC(O)(P(=O)(O)O)P(=O)(O)O)OCCOc1ccc2c(-c3c(-c4ccccn4)nn4c3CCC4)ccnc2c1 [Compound 1, (1-hydroxy-4-(((2-((4-(2-(pyridin-2-yl)-5,6-dihydro-4H-pyrrolo[1,2-b]pyrazol-3-yl)quinolin-7-yl)oxy)ethoxy)carbonyl)amino)butane-1,1-diyl)bis(phosphonic acid)]",7-day survival,"wild-type mice; 50 μg/kg, one intraperitoneal injection per week, n=6",no mice death; also recorded: survived for 7 days
same,7-day survival,"wild-type mice; 100 μg/kg, one intraperitoneal injection per week, n=6",no mice death; also recorded: survived for 7 days
same,7-day survival,"wild-type mice; 1 mg/kg, one intraperitoneal injection per week, n=6",no mice death; also recorded: survived for 7 days
same,mice that died in 7 days (of 6),"wild-type mice; 5 mg/kg, one intraperitoneal injection per week",2
same,7-day survival,"wild-type mice; 10 mg/kg, one intraperitoneal injection per week",all died in 3 days
same,safe dose,"wild-type mice; intraperitoneal administration, wild-type mice",below 5 mg/kg per week
same,bone remodeling of CED mice,CED mice [1]; 2-month treatment,restored normal bone remodeling
same,CD31+Emcn+ vessel surfaces (immunofluorescence),CED mice [1]; 8-week treatment,rescued abnormal vessel formation
same,number of TRAP+ cells,"CED mice [1]; 8-week treatment, diaphysis",decreased
same,number of Ocn+ cells,"CED mice [1]; 8-week treatment, diaphysis, TRAP and Ocn co-staining",decreased
same,level of TGF-β1,CED mice [1]; CED mice,decreased
same,"number and distribution of Osx+, Col1α+, and Ocn+ cells",CED mice [1]; CED mice,rescued
same,type H vessels,CED mice [1]; CED mice,significantly decreased
same,number of Col1+ cells compared with Littermate group,CED mice [1],no significant difference
same,number of Ocn+ cells compared with Littermate group,CED mice [1],no significant difference
same,number of Osx+ cells compared with Littermate group,CED mice [1],no significant difference
same,LepR+pSmad2/3+ dual positive BMSC (immunofluorescence),CED mice [1],significantly decreased
same,cortical bone parameters compared with Littermate group,"CED mice [2]; 100 μg/kg per week, 8 weeks",no significant difference
same,total BV/TV,"CED mice [2]; 100 μg/kg per week, 8 weeks",no significant difference
same,bone morphology of tibia (μCT three-dimensional reconstruction),"CED mice [2]; 100 μg/kg per week, 8 weeks, compared with CED and ALN-treated mice",significantly improved
same,total BV/TV distribution,"CED mice [2]; 100 μg/kg per week, 8 weeks, tibia cross-sections",restored
same,bone parameters,CED mice [2]; 2-month treatment,restored bone parameters
same,side effects,CED mice [2]; CED mice,no obvious side effects
same,bone fracture incidence,CED mice [2]; CED mice,8.3%
same,dose that effectively attenuated CED progression,"CED mice [2]; CED mice, intraperitoneal",100 μg/kg per week
same,"HE staining and pSmad2/3 staining of heart, liver, lung, and kidney",[5],normal tissue structures and TGF-β1 activation; also recorded: does not affect other organs
same,number of pSmad2/3-positive cells (immunofluorescence),[6],significantly reduced
same,TGF-β1 signaling in tibias (pSmad2/3 staining),[7],significantly reduced; also recorded: inhibited in a time-dependent manner
same,pSmad2/3 positive cells in tibia,TGF-β1 signaling pathway,significantly decreased
same,CD31+Emcn+ double positive cells (FACS of tibia bone marrow),CED mice [4],significantly reduced
same,number of LepR+ cells in bone marrow (FACS),CED mice [4]; listed as conjugate,significantly decreased
same,expression level of pSmad2 (Western blot),"[8]; HeLa cells, 10 μM for 1 h, 24 h, 48 h, then 5 ng/ml TGF-β1 for 30 min",significantly reduced
same,start of TβR1I release in cells (after),[8]; Western blotting and immunofluorescence staining,≥ 24 h
"OCCOc1ccc2c(-c3c(-c4ccccn4)nn4c3CCC4)ccnc2c1 [Compound S-3, reference compound]",TGF-β1 signaling in tibias (pSmad2/3 staining),[7],did not inhibit TGF-β1 signaling; also recorded: did not show significant differences
c1ccc(-c2nn3c(c2-c2ccnc4cc(OCCN5CCOCC5)ccc24)CCC3)nc1 [LY2109761],bone metastasis in mice,bone metastasis,reduce a potential of bone metastasis
Cc1cccc(-c2[nH]c(C(C)(C)C)nc2-c2ccc3c(c2)OCO3)n1 [SB505124],bone remodeling defects in CED mice,CED mice [9],rescued bone remodeling defects
Fc1ccc(Cl)cc1-c1nc(Nc2ccncc2)c2nccnc2n1 [SD-208],bone metastasis in mice,bone metastasis,effective in treating mice with bone metastases
